One experiment deals with P. acnes V3-1. The experiment can be described thus: MIC against bacteria isolated from acne lesions, Table 2. Format: cell-based, Propionibacterium acnes. As to conditions: Cutibacterium acnes, V31; P. acnes V3-1, isolated from acne lesions; read-out: Minimum Inhibitory Concentration. The method, then:
(§1) MIC of besifloxacin and other antibiotics molecules were determined by micro broth dilution method as per the Clinical and Laboratory Standards Institute (CLSI) guideline. MIC assay is the determinant of the inherent anti-microbial potency of a particular molecule. For preparing inoculum, bacterial strains were cultured in Brain Heart Infusion Agar (BHIA) at 37° C. for 24 hours. […] For bacterial inoculum, bacterial culture turbidity was adjusted to 0.1 OD at 600 nm in UV-Visual spectrophotometer (approximately 1.5×10^8 cells/ml) and further diluted (100 times with sterile BHI broth). Diluted bacterial suspension (100 μl) was added to each well except sterility control wells (column 12 of 96 well plate). Column 11 of 96 well plate was used as growth control and vehicle control. The plates were incubated at 37° C. for 24 h. The MIC of the test compounds were determined by observing the lowest concentration of test compound that prevented the visual bacterial growth.
(§2) Different skin resident bacteria were isolated from acne lesions of moderate to severe acne patients.

In experiment [1] the test system is Bacillus megaterium M1-2. The experiment is described as above. Particulars: Priestia megaterium, M12., read-out: Minimum Inhibitory Concentration. The experiment is classed as cell-based. How it is done: as §1, §2
Experiment [2] relates to Enterobacter aerogenes M2-1. Described as above. The experiment is classed as cell-based. Particulars: Klebsiella aerogenes, M21; Enterobacter aerogenes M2-1, isolated from acne lesions; read-out: Minimum Inhibitory Concentration. The method, then:
as §1, §2

The next experiment deals with K. pneumoniae S6-1. The description is as above. The experiment is classed as cell-based. As to conditions: Klebsiella pneumoniae, S61; K. pneumoniae S6-1, isolated from acne lesions; read-out: Minimum Inhibitory Concentration. The method, then: as §1, §2
For the next experiment, the system named is S. epidermidis S1-1. The description is as above. The experiment is classed as cell-based. As to conditions: Staphylococcus epidermidis, S11; S. epidermidis S1-1, isolated from acne lesions; read-out: Minimum Inhibitory Concentration. How it is done:
as §1, §2

For another experiment, the system named is P. avidum S3-1. The experiment is described as above. Format: cell-based. As to conditions: Cutibacterium avidum, S31; P. avidum S3-1, isolated from acne lesions; read-out: Minimum Inhibitory Concentration. How it is done:
as §1, §2

The test system of experiment [3] is Staphylococcus haemolyticus M1-1. The experiment is described as above. Format: cell-based. As to conditions: M11; Staphylococcus haemolyticus M1-1, isolated from acne lesions; read-out: Minimum Inhibitory Concentration. The method, then:
as §1, §2

The next experiment concerns Kocuria sp. S18-1. The experiment is described as above. Format: cell-based. As to conditions: SP.S181; Kocuria sp. S18-1, isolated from acne lesions; read-out: Minimum Inhibitory Concentration. How it is done: as §1, §2
The subject of experiment [4] is Dermatobacter hominis S11-2. Described as above. As to conditions: S112; Dermatobacter hominis S11-2, isolated from acne lesions; read-out: Minimum Inhibitory Concentration. Format: cell-based. How it is done:
as §1, §2

For a further experiment, the system named is Microbacterium sp. S20-2. The description is as above. Format: cell-based. Particulars: Microbacterium sp. S20-2, isolated from acne lesions. The method, then: as §1, §2
A further experiment has as its system Blastococcus sp. S21A-2. The experiment is classed as cell-based. Particulars: Blastococcus sp. S21A-2, isolated from acne lesions. The method, then:
as §1, §2

A further experiment concerns Acinetobacter sp. 488. Nature of the experiment: MIC, micro broth dilution in Muller Hinton broth (CLSI), Table 1B. The experiment is classed as cell-based. As to conditions: read-out: Minimum Inhibitory Concentration. How it is done:
(§3) Besifloxacin HCL was tested against ampicillin and cefotaxime (3rd generation cephalosporin) susceptible and resistant gram-negative bacterial strains involved in GNF (gram negative folliculitis) by broth dilution method as per the Clinical & Laboratory Standards Institutes (CLSI) guidelines. MIC assay was performed in 96 well plates by micro broth dilution method, in 96 well plates, all the wells were added with 100 μl of sterilized Muller Hinton broth No: 2 cation broth (HiMedia, India). The initial stock of test compounds (1 mg/ml) were prepared in dimethyl sulfoxide (DMSO) and further dilutions were made in culture broth to get the desirable concentration. Then 100 μl of broth containing test compounds were initially added to the first column's wells and then serial dilution was performed up to well of 10th column. Wells of 11th and 12th column served as a positive and negative control respectively. Finally, 100 μl of inoculum (0.5 McFarland equal bacterial suspension was 100 times diluted in culture broth) was added to all the wells. Plates were incubated at 37° C. for 18-24 hrs. After incubation, MIC of each test compound was determined by observing the lowest concentration of test compound that has no visual growth compared to growth control. Minimum inhibitory concentration of besifloxacin, ampicillin and cefotaxime against gram negative bacterial strains were shown in Table 1.

Another experiment has as its system Escherichia coli 592. The description is as above. Format: cell-based. Particulars: read-out: Minimum Inhibitory Concentration. The method, then:
as §3

A further experiment concerns Enterobacter sp. 2. Described as above. Particulars: read-out: Minimum Inhibitory Concentration. Format: cell-based. How it is done:
as §3

The test system of a further experiment is Pseudomonas sp. 537. Described as above. As to conditions: read-out: Minimum Inhibitory Concentration. Format: cell-based. The method, then:
as §3

The next experiment concerns Enterobacter sp. 1. The experiment is described as above. The experiment is classed as cell-based. As to conditions: read-out: Minimum Inhibitory Concentration. How it is done:
as §3

Another experiment relates to Klebsiella sp. 512. The experiment is described as above. Format: cell-based. Particulars: read-out: Minimum Inhibitory Concentration. The method, then:
as §3

Another experiment deals with Enterobacter sp. 532. The experiment is described as above. The experiment is classed as cell-based. Particulars: read-out: Minimum Inhibitory Concentration. The method, then: as §3
The test system of a further experiment is Klebsiella sp. 498. Described as above. The experiment is classed as cell-based. As to conditions: read-out: Minimum Inhibitory Concentration. How it is done: as §3
The next experiment concerns Escherichia coli 591. Described as above. Format: cell-based. As to conditions: read-out: Minimum Inhibitory Concentration. The method, then:
as §3

The test system of another experiment is Pseudomonas sp. 556. Described as above. As to conditions: read-out: Minimum Inhibitory Concentration. The experiment is classed as cell-based. The method, then: as §3
The subject of a further experiment is Enterobacter sp. 523. The experiment is described as above. Format: cell-based. Particulars: read-out: Minimum Inhibitory Concentration. How it is done: as §3

Molecules are shown by their SMILES. Values after ≈ are worked out from the molar mass of the structure shown.

As to `CN(C)[C@@H]1C(O)=C(C(N)=O)C(=O)[C@@]2(O)C(O)=C3C(=O)c4c(O)cccc4[C@@](C)(O)[C@H]3C[C@@H]12` [Tetracycline], the MIC in the experiment with P. acnes V3-1 was 0.3 µg/mL (≈ 0.675 µM); in experiment [1] it was 0.06 µg/mL (≈ 0.135 µM); in [2], 2 µg/mL (≈ 4.5 µM); in the experiment on K. pneumoniae S6-1 it was greater than 4 µg/mL; in the experiment with S. epidermidis S1-1, greater than 4 µg/mL; with P. avidum S3-1, 1 µg/mL (≈ 2.25 µM). The MIC was 0.25 µg/mL (≈ 0.563 µM) in experiment [3], 1 µg/mL (≈ 2.25 µM) in the experiment on Kocuria sp. S18-1 and greater than 4 µg/mL in [4]. Moreover, the “Minimum Inhibitory Concentration” value in the experiment on Microbacterium sp. S20-2 was found to be 2 µg/mL; in the experiment with Blastococcus sp. S21A-2, 0.5 µg/mL.
With `CO/N=C(\C(=O)N[C@@H]1C(=O)N2C(C(=O)O)=C(COC(C)=O)CS[C@H]12)c1csc(N)n1` [Cefotaxime], the MIC in the experiment with Acinetobacter sp. 488 is greater than 128 µg/mL; with Escherichia coli 592, 128 µg/mL (≈ 281 µM); in the experiment on Enterobacter sp. 2 it was 0.5 µg/mL (≈ 1.1 µM); in the experiment with Pseudomonas sp. 537, 16 µg/mL (≈ 35.1 µM); in the experiment on Enterobacter sp. 1, 128 µg/mL (≈ 281 µM); in the experiment with Klebsiella sp. 512, less than 0.25 µg/mL. Further, the MIC in the experiment on Enterobacter sp. 532 was 64 µg/mL (≈ 141 µM); with Klebsiella sp. 498, 64 to 128 µg/mL (≈ 141 to 281 µM); in the experiment with Escherichia coli 591, less than 0.25 µg/mL; in the experiment on Pseudomonas sp. 556 it was 4 µg/mL (≈ 8.78 µM); in the experiment on Enterobacter sp. 523, 128 µg/mL (≈ 281 µM).
As for `CC1(C)S[C@@H]2[C@H](NC(=O)[C@H](N)c3ccccc3)C(=O)N2[C@H]1C(=O)O` [Ampicillin], the MIC was greater than 128 µg/mL in the experiment on Acinetobacter sp. 488; greater than 128 µg/mL in the experiment with Escherichia coli 592; 2 µg/mL (≈ 5.72 µM) in the experiment with Enterobacter sp. 2; greater than 128 µg/mL in the experiment on Pseudomonas sp. 537; greater than 128 µg/mL with Enterobacter sp. 1; 32 µg/mL (≈ 91.6 µM) in the experiment on Klebsiella sp. 512. Moreover, the MIC is greater than 128 µg/mL in the experiment with Enterobacter sp. 532; greater than 128 µg/mL with Klebsiella sp. 498; 4 µg/mL (≈ 11.4 µM) with Escherichia coli 591; greater than 128 µg/mL in the experiment with Pseudomonas sp. 556; greater than 128 µg/mL with Enterobacter sp. 523.
For `CC[C@H]1OC(=O)[C@H](C)[C@@H](O[C@H]2C[C@@](C)(OC)[C@@H](O)[C@H](C)O2)[C@H](C)[C@@H](O[C@@H]2O[C@H](C)C[C@H](N(C)C)[C@H]2O)[C@](C)(O)C[C@@H](C)C(=O)[C@H](C)[C@@H](O)[C@]1(C)O` [Erythromycin], the MIC in the experiment on P. acnes V3-1 was greater than 150 µg/mL; in [1], 0.25 µg/mL (≈ 0.341 µM); in experiment [2], greater than 4 µg/mL; with K. pneumoniae S6-1 it was greater than 4 µg/mL; with S. epidermidis S1-1, greater than 4 µg/mL; in the experiment with P. avidum S3-1, 0.06 µg/mL (≈ 0.0818 µM). The MIC in experiment [3] is 0.25 µg/mL (≈ 0.341 µM); with Kocuria sp. S18-1, greater than 4 µg/mL; in experiment [4] it was greater than 4 µg/mL. In addition, the “Minimum Inhibitory Concentration” value is 0.25 µg/mL with Microbacterium sp. S20-2 and less than 0.01 µg/mL in the experiment with Blastococcus sp. S21A-2.

Source of the values: patent US20210393520A1, “TREATMENT OF GRAM-NEGATIVE FOLLICULITIS OR AN INFLAMMATION THEREOF WITH BESIFLOXACIN” (VYOME THERAPEUTICS LIMITED, priority 2018, published 2021).
